In PubChem BioAssay AID2060333 (Molecular Pharmacology Branch, DTP, NCI, 2025):
Several values for one entry are separate records, joined by “and”; a condition that tells them apart may be missing. Equal entries are not always repeated. Values belong to the compound of their own block, whether it stands above or below them.

Tested on: 845751-090-R-J2-PDC tumor spheroid viability
Assay: Anticancer human tumor 845751-090-R-J2-PDC patient-derived head and neck squamous carcinoma cell line growth inhibition [IpAb]
Conditions: spheroids with HUVEC and MSC; for viability, T/C: stronger effect = lower value
From the text: Combinatorial screen of targeted agents with ipatasertib and abemaciclib in multi-cell type tumor spheroids
A high-throughput screen of multi-cell type tumor spheroids was designed to identify active combinations of targeted small molecules and ipatasertib or abemaciclib. Complex spheroids include a stromal component modeled by human endothelial cells (HUVEC) and fibroblasts modeled by human mesenchymal stem cells (MSCs). The concentration ranges selected for each drug and investigational agent were based upon clinically achievable concentrations if the clinical Cmax of the agent was known.
Compounds. The drugs and investigational agents: ipatasertib (NSC767898), abemaciclib(NSC768073), selumetinib (NSC741078), trametinib (758246), adavosertib (NSC754352), everolimus (NSC733504), sapanisertib (NSC764658), vemurafenib (NSC761431), venetoclax (NSC766270), copanlisib (NSC809693), apelisib (NSC765974), palbociblib (NSC758247), vemurafenib (NSC761431), dabrafenib (NSC764134), ravoxertinib (NSC781343), BMS-387032 (NSC767048), sotorasib (NSC818433), talazoparib (NSC767125) and afursertib (NSC778305), were obtained from the National Cancer Institute (NCI) Developmental Therapeutics Program Chemical Repository. The FDA-approved anticancer drug set is available from the NCI Developmental Therapeutics Program. […] The stock solutions were prepared in dimethyl sulfoxide (DMSO, Sigma-Aldrich, St. Louis, MO, cat. D2650) at 800-fold the tested concentration and stored at -70 degrees C prior to their use. All drugs and investigational agents were tested over a range starting from a high concentration at or near the clinical Cmax and decreasing in half-log increments. If the clinical Cmax for an agent had not been determined, the highest concentration tested was 10 microM.
NCI60 Cell Culture. NCI60 cell lines were obtained from the NCI Developmental Therapeutics Program Tumor Repository. For each lot of cells, the Repository performed Applied Biosystems AmpFLSTR Identifiler testing with PCR amplification to confirm consistency with the published Identifier STR profile for each cell line. Cells were kept in continuous culture for no more than 20 passages. The optimal seeding densities for each of the cell lines at each time point assessed were determined prior to performing the concentration response studies. Briefly, the NCI60 human tumor lines were grown as monolayers in RPMI 1640 medium supplemented with 10% FBS and 2 mmol/L L-glutamine.
An additional 9 lines were from the NCI60 cell line panel including MDA-MB-231 breast carcinoma, MDA-MB-468 breast carcinoma, MCF7 breast carcinoma, Hs578T breast carcinoma, MALME-3M melanoma, SK-MEL-2 melanoma, SK-OV-3 ovarian carcinoma, DU-145 prostate carcinoma, PC-3 prostate carcinoma, all cell lines along with major genetic alterations are listed on Table 2. Pooled donor human umbilical vein endothelial cells (HUVEC, Lonza, cat. CC-2519) and human mesenchymal stem cells (hMSC, Lonza, cat. PT-2501) were purchased from Lonza (Walkersville, MD).
PDMR cell lines were grown in complete medium (DC medium): Dulbecco's modified Eagle's medium (DMEM)/F12 supplemented with 5% fetal bovine serum (FBS), 2 mM L-glutamine, 100 U/mL penicillin and 100 µg/ml streptomycin, 0.4 µg/ml hydrocortisone, 10 ng/ml epidermal growth factor (EGF) recombinant human protein, 24 µg/mL adenine, and 0.1 mg/mL primocin. During culture from frozen stock vials, PDMR cells were cultured in the same medium containing 10 µM Y-27632 (see Table 3). The PDCs were cultured in complete DMEM/F12 media without 10 microM Y-27632 dihydrochloride for at least two passages prior to the screen. The pooled donor HUVEC and hMSC were cultured in endothelial cell growth medium 2 (PromoCell, Heidelberg, Germany, cat. C-22011) and mesenchymal stem cell growth medium 2 (PromoCell, cat. C-28009), respectively. For all experiments, HUVEC and hMSC were used at passages </=5.
[…]

[1] = curve of first compound, second compound 0.1 µM
[2] = curve of first compound, second compound 0.316 µM
[3] = curve of first compound, second compound 1 µM
[4] = second compound 0.1 µM, first compound 0.0316 µM
[5] = second compound 0.1 µM, first compound 0.1 µM
[6] = second compound 0.316 µM, first compound 0.0316 µM
[7] = second compound 0.316 µM, first compound 0.1 µM
[8] = second compound 1 µM, first compound 0.0316 µM
[9] = second compound 1 µM, first compound 0.1 µM
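Further: spheroids exposed to compounds for 7 days before readout.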
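Wherever viability, T/C is given: CTG3D luminescence normalised so that 100% = DMSO vehicle control.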

Structure (SMILES): Cn1ncc(Cl)c1-c1cc(C(=O)NC(CN)Cc2cccc(F)c2)sc1Cl (centres undefined) + CCN1CCN(Cc2ccc(Nc3ncc(F)c(-c4cc(F)c5nc(C)n(C(C)C)c5c4)n3)nc2)CC1
IC50 (curve of first compound, second compound 0.01 µM): 178 nM | IC50 (curve of first compound, second compound 0.0316 µM): 94.7 nM | IC50 [1]: 160 nM | IC50 [2]: 170 nM | IC50 [3]: 401 nM | viability, T/C (second compound 0.01 µM, first compound 0.0316 µM): 97.8% | viability, T/C (second compound 0.01 µM, first compound 0.1 µM): 58% | viability, T/C (second compound 0.01 µM, first compound 0.316 µM): 34% | viability, T/C (second compound 0.01 µM, first compound 1 µM): 32.3% | viability, T/C (second compound 0.01 µM, first compound 3.16 µM): 8.93% | viability, T/C (second compound 0.01 µM, first compound 10 µM): 0.28% | viability, T/C (second compound 0.0316 µM, first compound 0.0316 µM): 90.9% | viability, T/C (second compound 0.0316 µM, first compound 0.1 µM): 38.1% | viability, T/C (second compound 0.0316 µM, first compound 0.316 µM): 30.7% | viability, T/C (second compound 0.0316 µM, first compound 1 µM): 28.1% | viability, T/C (second compound 0.0316 µM, first compound 3.16 µM): 8.85% | viability, T/C (second compound 0.0316 µM, first compound 10 µM): 0.59% | viability, T/C [4]: 86.3% | viability, T/C [5]: 56.7% | viability, T/C (second compound 0.1 µM, first compound 0.316 µM): 34.1% | viability, T/C (second compound 0.1 µM, first compound 1 µM): 29.2% | viability, T/C (second compound 0.1 µM, first compound 3.16 µM): 6.19% | viability, T/C (second compound 0.1 µM, first compound 10 µM): 0.25% | viability, T/C [6]: 63.4% | viability, T/C [7]: 72% | viability, T/C (second compound 0.316 µM, first compound 0.316 µM): 26.7% | viability, T/C (second compound 0.316 µM, first compound 1 µM): 25.8% | viability, T/C (second compound 0.316 µM, first compound 3.16 µM): 4.76% | viability, T/C (second compound 0.316 µM, first compound 10 µM): 0.45% | viability, T/C [8]: 64.3% | viability, T/C [9]: 75.1% | viability, T/C (second compound 1 µM, first compound 0.316 µM): 53.1% | viability, T/C (second compound 1 µM, first compound 1 µM): 27.4% | viability, T/C (second compound 1 µM, first compound 3.16 µM): 3.89% | viability, T/C (second compound 1 µM, first compound 10 µM): 0.61%

Structure (SMILES): CC(C)n1nc(-c2ccc3oc(N)nc3c2)c2c(N)ncnc21 + CC(C)NCC(C(=O)N1CCN(c2ncnc3c2C(C)CC3O)CC1)c1ccc(Cl)cc1
IC50 [1]: 1.3 nM | IC50 [2]: < 0.316 nM | IC50 [3]: < 0.316 nM | IC50 (curve of first compound, second compound 3.16 µM): < 0.316 nM | IC50 (curve of first compound, second compound 10 µM): < 0.316 nM | viability, T/C (second compound 0.1 µM, first compound 0.000316 µM): 55.2% | viability, T/C (second compound 0.1 µM, first compound 0.001 µM): 48.8% | viability, T/C (second compound 0.1 µM, first compound 0.00316 µM): 45.1% | viability, T/C (second compound 0.1 µM, first compound 0.01 µM): 28.1% | viability, T/C [4]: 21.2% | viability, T/C [5]: 21.8% | viability, T/C (second compound 0.316 µM, first compound 0.000316 µM): 36% | viability, T/C (second compound 0.316 µM, first compound 0.001 µM): 27.3% | viability, T/C (second compound 0.316 µM, first compound 0.00316 µM): 23.3% | viability, T/C (second compound 0.316 µM, first compound 0.01 µM): 13.5% | viability, T/C [6]: 11.2% | viability, T/C [7]: 9.02% | viability, T/C (second compound 1 µM, first compound 0.000316 µM): 22.4% | viability, T/C (second compound 1 µM, first compound 0.001 µM): 22.9% | viability, T/C (second compound 1 µM, first compound 0.00316 µM): 12.2% | viability, T/C (second compound 1 µM, first compound 0.01 µM): 8.4% | viability, T/C [8]: 8.17% | viability, T/C [9]: 9.76% | viability, T/C (second compound 3.16 µM, first compound 0.000316 µM): 24.3% | viability, T/C (second compound 3.16 µM, first compound 0.001 µM): 13.1% | viability, T/C (second compound 3.16 µM, first compound 0.00316 µM): 8.4% | viability, T/C (second compound 3.16 µM, first compound 0.01 µM): 5.71% | viability, T/C (second compound 3.16 µM, first compound 0.0316 µM): 4% | viability, T/C (second compound 3.16 µM, first compound 0.1 µM): 3.17% | viability, T/C (second compound 10 µM, first compound 0.000316 µM): 8.63% | viability, T/C (second compound 10 µM, first compound 0.001 µM): 7.55% | viability, T/C (second compound 10 µM, first compound 0.00316 µM): 4.17% | viability, T/C (second compound 10 µM, first compound 0.01 µM): 4.42% | viability, T/C (second compound 10 µM, first compound 0.0316 µM): 2.07% | viability, T/C (second compound 10 µM, first compound 0.1 µM): 1.99%

IC50 (curve of compound): 95.6 nM and 145 nM
Structure (SMILES): CC(C)(C)c1cnc(CSc2cnc(NC(=O)C3CCNCC3)s2)o1
viability, T/C (compound 0.00949 µM): 133% and 138% | viability, T/C (compound 0.03 µM): 147% and 141% | viability, T/C (compound 0.0949 µM): 50.3% and 77.6% | viability, T/C (compound 0.3 µM): 1.67% and 2.96% | viability, T/C (compound 0.949 µM): 1.36% and 1.78% | viability, T/C (compound 3 µM): 0.89% and 2.1%

IC50 (curve of compound): 16.2 nM and 7.32 nM
Structure (SMILES): CC(C)n1nc(-c2ccc3oc(N)nc3c2)c2c(N)ncnc21
viability, T/C (compound 0.000316 µM): 108% and 77.2% | viability, T/C (compound 0.001 µM): 81.4% and 72.8% | viability, T/C (compound 0.00316 µM): 58.9% and 50.4% | viability, T/C (compound 0.01 µM): 57.2% and 53.4% | viability, T/C (compound 0.0316 µM): 49.8% and 32.9% | viability, T/C (compound 0.1 µM): 26% and 20.3%
